Measured values reported in patent publication US20220162169A1, “6-OXO-1,6-DIHYDROPYRIDAZINE PRODRUG DERIVATIVE, PREPARATION METHOD THEREFOR, AND APPLICATION THEREOF IN MEDICINE” (JIANGSU HENGRUI MEDICINE CO., LTD., priority 2019, published 2022).
pIC50: −log10 of the molar value. Values after ≈ are worked out from the molar mass of the structure shown. Where a name gives a salt, the structure may show the parent alone.

How the values were obtained:
[1] = Solubility in PBS solution (pH 7.4) at room temperature; format: physicochemical; settings: for solubility at 24 h: PBS solution (pH 7.4), aqueous buffer, kinetic from dmso stock, PBS pH 7.4, room temperature, 24 hours shaking, 1% DMSO, average of two measurements, read-out: Solubility in PBS pH7.4; for Solubility in the PBS solution (pH 7.4), in words: room temperature, PBS pH 7.4
Procedure: Test Example 1. Solubility of the Compound of the Present Disclosure in PBS Solution (pH 7.4) at Room Temperature
2.1 Formulation of the PBS solution (pH 7.4): 0.57 g of NaH2PO42.H2O, 5.55 g of Na2HPO4.12H2O and 6.48 g of NaCl were weighed, followed by the addition of ultra-pure water. The pH was adjusted to 7.4±0.05 with 1 M NaOH or 1 M HCl. Water was added until the volume reached 1 L. The PBS solution was stored in a refrigerator at 4° C. (the storage life was 6 months).
2.2 Formulation of the solution of the compound in PBS 7.4: An appropriate amount of the test compound was weighed, and dissolved in DMSO or a mixed solution of DMSO:acetonitrile:ethanol (1:1:1) to obtain a 10 mM stock solution of the test compound. 10 μL of the stock solution of the test compound and 990 μL of the PBS solution (pH 7.4) were precisely measured and placed in a 2 mL sample vial and mixed well, and the DMSO concentration of the final solution was 1% (v/v). This solution was formulated in duplicate, shaken on a plate bed at room temperature for 24 hours, and centrifuged at 5000 rpm for 20 minutes. The supernatant was analyzed by the liquid chromatograph.
2.3 Formulation of the reference solution: 10 μL of the stock solution of the test sample (concentration: 10 mM, dissolved in DMSO) and 990 μL of an organic mixed solvent (usually DMSO:acetonitrile:ethanol=1:1:1) were precisely measured and placed in a 2 mL sample vial, and mixed well to obtain a clear 100 μM sample solution. The solution was filtered through a 0.45 μm organic phase microporous filter membrane, and the filtrate was analyzed by the liquid chromatograph.
Solubility (μM)=peak area of the sample/peak area of the reference*concentration of the reference (μM)*sample solution dilution factor
The average of two measurements was used as the final solubility.

NaV1.8 ion channel = target: T1, NaV1.8 ion channel (Homo sapiens, UniProt Q9Y5Y9); assay: Manual patch clamp, inhibitory activity on NaV1.8 stably expressed on HEK293 cells; format: cell-based; settings: HEK293 cells stably expressing NaV1.8, manual patch clamp, resting protocol (clamped at -80 mV, depolarized to 10 mV), 1 μM TTX; read-out: IC50 on inhibiting the Nav1.8 channel activity
T1 construct: expressed in transfected cells
Text: Test Example 3. Determination of the Inhibitory Activity of the Compounds of the Present Disclosure on NaV1.8
The purpose of the experiment is to investigate the effect of the compounds on NaV1.8 ion channel in an in vitro experiment, wherein the NaV1.8 ion channel is stably expressed on HEK293 cells. After the NaV1.8 current becomes stable, the NaV1.8 currents before and after the administration of the compound are compared so as to obtain the effect of the compound on the NaV1.8 ion channel.
Except for NaOH and KOH used for acid titration and base titration, all the compounds used for formulating the extracellular fluid and intracellular fluid were purchased from Sigma (St. Louis, Mo.). Extracellular fluid (mM): NaCl, 137; KCl, 4; CaCl2, 1.8; MgCl2, 1; HEPES, 10; glucose, 10; pH 7.4 (NaOH titration). Intracellular fluid (mM): aspartic acid, 140; MgCl2, 2; EGTA, 11; HEPES, 10; pH 7.2 (CsOH titration). All solutions of test compound and control compound contained 1 μM TTX.
The test compound was dissolved in dimethyl sulfoxide (DMSO) at a stock concentration of 9 mM. The stock solution of the test compound was dissolved in the extracellular fluid on the day of the test and formulated into the required concentration.
1) The compound was formulated into solutions with specified concentrations, the solutions were added to the pipelines respectively in order from low to high concentration, and the pipelines were marked.
2) The cell was transferred to the perfusion tank. A positive pressure was applied to the electrode. The tip of the electrode touched the cell. The three-way valve of the air extracting device was adjusted to a three-way state. […]
The cell was clamped at −80 mV. […] The maximum current caused by the square wave was measured. […] After the response became stable, the blocking intensity was calculated. […]
The inhibitory activity of the compounds of the present disclosure on NaV1.8 was determined by the above test, and the resulting IC50 values are shown in Table 3.

[2] = Pharmacokinetics assay in SD rats after intragastric administration, plasma LC/MS/MS; format: in vivo; settings: for Detection of the administered prodrug compound itself in rat plasma: after intragastric administration, LC/MS/MS; for In vivo conversion of the prodrug into its metabolite: intragastric administration
Procedure: Test Example 2. Pharmacokinetics Assay of the Compounds of the Present Disclosure in Rats
SD rats were used as test animals. The drug concentration in plasma at different time points was determined by LC/MS/MS method after oral administration of the compounds of Example 2, Example 6 and Example 7 to SD rats. The pharmacokinetic behavior of the compounds of the present disclosure was studied and evaluated in SD rats.
Forty SD rats (half male and half female, equally divided into ten groups) were purchased from Shanghai Jiesijie Laboratory Animal Co., LTD. (Certificate No.: SCXK(Shanghai) 2013-0006).
An appropriate amount of the compound of Example 2 was weighed, followed by the addition of 5% of DMSO, 5% of tween 80 and 90% of normal saline successively to obtain a colorless, clear and transparent solution.
An appropriate amount of the compound of Example 2 was weighed, followed by the addition of 0.5% sodium carboxymethyl cellulose (containing 0.5% tween 80) to obtain a white homogeneous suspension.
An appropriate amount of the compound of Example 6 was weighed, and added to 200 mM (5% PVPK30+5% TPGS) Na2HPO4 solution (pH=9) to obtain a homogeneous suspension.
An appropriate amount of the compound of Example 7 was weighed, and added to 200 mM (5% PVPK30+5% TPGS) Na2HPO4 solution (pH=9) to obtain a homogeneous suspension.
After an overnight fast, the SD rats were intragastrically administered the test compounds. Regarding to the compound of Example 2 (formulation: 5% of DMSO, 5% of tween 80 and 90% of normal saline), the administration dose was 2 mg/kg, the administration volume was 10 mL/kg, and the administration concentration was 0.2 mg/mL. Regarding to the compound of Example 2 (formulation: 0.5% sodium carboxymethyl cellulose (containing 0.5% tween 80)), the administration dose was 10, 30, 100 mg/kg, the administration volume was 10 mL/kg, and the administration concentration was 1, 3, 10 mg/mL. Regarding to the compound of Example 6, the administration dose was 100, 300, 900 mg/kg, the administration volume was 10 mL/kg, and the administration concentration was 10, 30, 90 mg/mL. Regarding to the compound of Example 7, the administration dose was 10, 30, 100 mg/kg, the administration volume was 10 mL/kg, and the administration concentration was 1, 3, 10 mg/mL.
After an overnight fast, the SD rats were intragastrically administered the test compounds. 0.2 ml of blood was taken from the orbit before the administration and at 0.5, 1.0, 2.0, 4.0, 6.0, 8.0, 11.0 and 24.0 hours after the administration. The samples were stored in heparinized tubes, and centrifuged for 10 minutes at 3500 rpm to separate the blood plasma. The plasma samples were stored at −20° C. The SD rats were fed 2 hours after the administration.
The content of the test compound in the plasma of SD rats after administration of the test compound at different concentrations was determined: 25 μL of SD rat plasma at each time point after the administration was taken, followed by the addition of 50 μL of the internal standard camptothecin solution (100 ng/mL) and 200 μL of acetonitrile. The resulting solution was vortex-mixed for 5 minutes, and centrifuged for 10 minutes (3700 rpm). 3.0 μL of the supernatant was taken from the plasma samples of the compound of Example 2 (the group at the administration dose of 2 mg/kg) for LC/MS/MS analysis. 2.0 μL of the supernatant was taken from the plasma samples of the compound of Example 2 (the group at the administration dose of 10, 30, or 100 mg/kg) for LC/MS/MS analysis. 0.2 μL of the supernatant was taken from the plasma samples of the compound of Example 6 for LC/MS/MS analysis. 1 μL of the supernatant was taken from the plasma samples of the compound of Example 7 for LC/MS/MS analysis. […]

T1 sequence (Q9Y5Y9 whole entry): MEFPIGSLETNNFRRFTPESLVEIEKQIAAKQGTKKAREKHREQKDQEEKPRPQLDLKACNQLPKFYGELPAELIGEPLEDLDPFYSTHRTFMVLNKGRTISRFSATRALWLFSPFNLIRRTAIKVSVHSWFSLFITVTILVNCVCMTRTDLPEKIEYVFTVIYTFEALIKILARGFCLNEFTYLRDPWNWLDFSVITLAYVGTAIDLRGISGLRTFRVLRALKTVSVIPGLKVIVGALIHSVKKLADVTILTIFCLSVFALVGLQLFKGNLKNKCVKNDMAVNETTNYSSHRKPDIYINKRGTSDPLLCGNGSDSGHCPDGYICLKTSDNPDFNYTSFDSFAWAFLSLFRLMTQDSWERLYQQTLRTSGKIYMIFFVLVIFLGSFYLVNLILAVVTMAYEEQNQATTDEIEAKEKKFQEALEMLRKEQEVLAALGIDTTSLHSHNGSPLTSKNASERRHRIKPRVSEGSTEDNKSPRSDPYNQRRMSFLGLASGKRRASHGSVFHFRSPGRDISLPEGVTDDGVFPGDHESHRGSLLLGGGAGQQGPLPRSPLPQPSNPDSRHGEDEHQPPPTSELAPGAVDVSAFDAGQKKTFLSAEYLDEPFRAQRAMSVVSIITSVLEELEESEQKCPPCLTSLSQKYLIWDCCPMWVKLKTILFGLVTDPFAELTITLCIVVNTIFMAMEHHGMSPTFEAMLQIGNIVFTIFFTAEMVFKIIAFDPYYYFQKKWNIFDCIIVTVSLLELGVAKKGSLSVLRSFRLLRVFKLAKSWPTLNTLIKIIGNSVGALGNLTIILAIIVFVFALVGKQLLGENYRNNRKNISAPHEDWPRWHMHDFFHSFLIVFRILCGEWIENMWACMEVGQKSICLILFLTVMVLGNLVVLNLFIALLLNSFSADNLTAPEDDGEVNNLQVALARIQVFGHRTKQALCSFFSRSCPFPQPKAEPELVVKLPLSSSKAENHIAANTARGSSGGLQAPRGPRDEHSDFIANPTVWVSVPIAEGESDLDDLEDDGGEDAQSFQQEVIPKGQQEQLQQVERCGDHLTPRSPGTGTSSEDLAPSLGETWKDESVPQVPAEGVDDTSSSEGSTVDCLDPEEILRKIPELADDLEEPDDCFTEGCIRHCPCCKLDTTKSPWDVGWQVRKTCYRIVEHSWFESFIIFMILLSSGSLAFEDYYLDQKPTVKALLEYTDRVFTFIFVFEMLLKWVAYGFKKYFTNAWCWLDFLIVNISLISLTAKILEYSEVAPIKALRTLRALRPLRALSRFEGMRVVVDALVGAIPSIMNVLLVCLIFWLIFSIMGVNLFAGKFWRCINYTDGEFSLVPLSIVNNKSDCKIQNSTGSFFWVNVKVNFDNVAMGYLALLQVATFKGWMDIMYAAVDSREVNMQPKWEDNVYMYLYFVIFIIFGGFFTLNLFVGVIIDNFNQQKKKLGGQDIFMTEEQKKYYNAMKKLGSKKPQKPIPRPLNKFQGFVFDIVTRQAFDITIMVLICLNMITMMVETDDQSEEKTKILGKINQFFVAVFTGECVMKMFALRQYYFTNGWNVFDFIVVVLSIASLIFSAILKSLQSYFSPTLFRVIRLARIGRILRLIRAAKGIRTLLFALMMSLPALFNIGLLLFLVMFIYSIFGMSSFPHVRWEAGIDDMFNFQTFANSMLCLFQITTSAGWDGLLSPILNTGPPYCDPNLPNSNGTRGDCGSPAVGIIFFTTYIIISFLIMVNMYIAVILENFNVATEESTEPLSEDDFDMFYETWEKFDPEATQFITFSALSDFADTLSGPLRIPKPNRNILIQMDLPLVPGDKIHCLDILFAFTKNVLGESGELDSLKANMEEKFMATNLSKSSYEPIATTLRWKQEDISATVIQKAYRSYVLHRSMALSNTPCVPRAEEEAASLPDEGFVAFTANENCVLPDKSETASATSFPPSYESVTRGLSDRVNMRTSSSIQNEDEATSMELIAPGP

## Cc1cc(F)ccc1Oc1cc(C(F)(F)F)c(Cl)cc1C(=O)Nc1cn[nH]c(=O)c1 [Compound 1h, 5-Chloro-2-(4-fluoro-2-methylphenoxy)-N-(6-oxo-1,6-dihydropyridazin-4-yl)-4-(trifluoromethyl)benzamide]
[1]
  solubility at 24 h: 0.5 µM (≈ 0.221 µg/mL)
  Solubility in the PBS solution (pH 7.4), in words: poor

## COc1cc(F)ccc1Oc1cc(C(F)(F)F)c(Cl)cc1C(=O)Nc1cn[nH]c(=O)c1 [Compound 6c, 5-Chloro-2-(4-fluoro-2-methoxyphenoxy)-N-(6-oxo-1,6-dihydropyridazin-4-yl)-4-(trifluoromethyl)benzamide]
[1]
  solubility at 24 h: 0.44 µM (≈ 0.201 µg/mL)
  Solubility in the PBS solution (pH 7.4), in words: poor

## [2H]C([2H])([2H])Oc1cc(F)ccc1Oc1cc(C(F)(F)F)c(Cl)cc1C(=O)Nc1cn[nH]c(=O)c1 [Compound 7d, 5-Chloro-2-(4-fluoro-2-(methoxy-d3)phenoxy)-N-(6-oxo-1,6-dihydropyridazin-4-yl)-4-(trifluoromethyl)benzamide]
[1]
  solubility at 24 h: 1.26 µM (≈ 0.581 µg/mL)
  Solubility in the PBS solution (pH 7.4), in words: poor

## Cc1cc(F)ccc1Oc1cc(C(F)(F)F)c(Cl)cc1C(=O)Nc1cnn(COC(=O)CCC(=O)O)c(=O)c1 [Example 2, 4-((4-(5-Chloro-2-(4-fluoro-2-methylphenoxy)-4-(trifluoromethyl)benzamido)-6-oxopyridazin-1(6H)-yl)methoxy)-4-oxobutanoic acid]
[1]
  solubility at 24 h: 57.4 µM (≈ 32.8 µg/mL)
NaV1.8 ion channel
  pIC50: 7.42
[2]
  Detection of the administered prodrug compound itself in rat plasma: not detected
  In vivo conversion of the prodrug into its metabolite: converted into compound 1h in vivo

## COc1cc(F)ccc1Oc1cc(C(F)(F)F)c(Cl)cc1C(=O)Nc1cnn(COC(=O)CCC(=O)O)c(=O)c1 [Example 6, 4-((4-(5-Chloro-2-(4-fluoro-2-methoxyphenoxy)-4-(trifluoromethyl)benzamido)-6-oxopyridazin-1(6H)-yl)methoxy)-4-oxobutanoic acid]
[1]
  solubility at 24 h: 44.9 µM (≈ 26.4 µg/mL)
NaV1.8 ion channel
  pIC50: 8.41
[2]
  Detection of the administered prodrug compound itself in rat plasma: not detected
  In vivo conversion of the prodrug into its metabolite: converted into compound 6c in vivo

## Cc1cc(F)ccc1Oc1cc(C(F)(F)F)c(Cl)cc1C(=O)Nc1cnn(COS(=O)(=O)O)c(=O)c1 [Example 8, (4-(5-Chloro-2-(4-fluoro-2-methylphenoxy)-4-(trifluoromethyl)benzamido)-6-oxopyridazin-1(6H)-yl)methyl hydrogen sulfate]
[1]
  solubility at 24 h: 707 µM

## Cc1cc(F)ccc1Oc1cc(C(F)(F)F)c(Cl)cc1C(=O)Nc1cnn(COC(=O)/C=C/C(=O)O)c(=O)c1 [Example 9, (E)-4-((4-(5-Chloro-2-(4-fluoro-2-methylphenoxy)-4-(trifluoromethyl)benzamido)-6-oxopyridazin-1(6H)-yl)methoxy)-4-oxobut-2-enoic acid]
[1]
  solubility at 24 h: 63.5 µM (≈ 36.2 µg/mL)

## Cc1cc(F)ccc1Oc1cc(C(F)(F)F)c(Cl)cc1C(=O)Nc1cnn(COC(=O)CC(=O)O)c(=O)c1 [Example 10, 3-((4-(5-Chloro-2-(4-fluoro-2-methylphenoxy)-4-(trifluoromethyl)benzamido)-6-oxopyridazin-1(6H)-yl)methoxy)-3-oxopropanoic acid]
[1]
  solubility at 24 h: 147 µM (≈ 82 µg/mL)

## [2H]C([2H])([2H])Oc1cc(F)ccc1Oc1cc(C(F)(F)F)c(Cl)cc1C(=O)Nc1cnn(COS(=O)(=O)O)c(=O)c1 [Example 12, (4-(5-Chloro-2-(4-fluoro-2-(methoxy-d3)phenoxy)-4-(trifluoromethyl)benzamido)-6-oxopyridazin-1(6H)-yl)methyl hydrogen sulfate]
[1]
  solubility at 24 h: 96.2 µM

## [2H]C([2H])([2H])Oc1cc(F)ccc1Oc1cc(C(F)(F)F)c(Cl)cc1C(=O)Nc1cnn(COC(=O)/C=C/C(=O)O)c(=O)c1 [Example 13, (E)-4-((4-(5-Chloro-2-(4-fluoro-2-(methoxy-d3)phenoxy)-4-(trifluoromethyl)benzamido)-6-oxopyridazin-1(6H)-yl)methoxy)-4-oxobut-2-enoic acid]
[1]
  solubility at 24 h: 63.6 µM (≈ 37.4 µg/mL)
